In patent US6518302B1, “Remedies” (Takara Shuzo Co., Ltd., priority 1999, dated 2003):
Read-outs that look alike come from different tables or passages of the source.

Assays:
[1] = Conversion into DGE in culture medium (thin-layer chromatography); assay type: in vitro ADME; details: 10 mM in RPMI 1640 medium with 10% calf serum, 37° C., 4 hours
Protocol: The compound (7) or the compound (9) synthesized in Example 1 was dissolved at a final concentration of 10 mM in RPMI 1640 medium supplemented with 10% calf serum. These samples were allowed to stand at 37° C. for 4 hours. […] each of the samples was then subjected to thin-layer chromatography using chloroform:methanol=5:1 as a developing solvent. Detection was carried out using orcinol-sulfuric acid.
For each sample, a spot with Rf value of 0.5, the same value as that for the compound of general formula IV in which Z is CH2OH and Y is H (L-glycero-1,5-epoxy-1αβ,6-dihydroxy-cis-hex-3-en-2-one, hereinafter referred to as DGE), was detected.

[2] = test system: HL-60 cells (ATCC CCL-240); assay: Proliferation of HL-60 cells with or without hydroxyurea G1 arrest (WST-1); assay type: cell-based, Human; details: Homo sapiens, 48 hours
Protocol: HL-60 cells (ATCC CCL-240) were suspended in RPMI 1640 medium (Bio Whittaker, 12-702F) containing 10% fetal calf serum (Gibco) and 100 μM hydroxyurea at a concentration of 5×10^5 cells/ml. 20 ml of the suspension was added to a 10-cm Petri dish. The dish was incubated at 37° C. overnight in the presence of 5% CO2 to make the cells arrest at G1 phase. The cells were collected by centrifugation and resuspended in RPMI 1640 medium containing 10% fetal calf serum (Gibco) and 100 μM hydroxyurea at a concentration of 5×10^5 cells/ml. 5 ml of the suspension was added to each well of a 6-well microtiter plate. On the other hand, as cells without the treatment with hydroxyurea, HL-60 cells were suspended in RPMI 1640 medium containing 10% fetal calf serum (Gibco) at a concentration of 1×10^5 cells/ml. 5 ml of the suspension was added to each well of a 6-well microtiter plate. 50 μl of a solution containing DGE at a concentration of 30, 22.5, 15 or 7.5 mM in water, 25 μl of a solution containing the compound (7) at a concentration of 60, 45, 30 or 15 mM in dimethyl sulfoxide, or 25 μl of a solution containing the compound (17) at a concentration of 100, 75, 50 or 25 mM in dimethyl sulfoxide was added to the well containing the cells treated with hydroxyurea. 50 μl of a solution containing DGE at a concentration of 8, 6, 4 or 2 mM in water, 25 μl of a solution containing the compound (7) at a concentration of 30, 22.5, 15 or 7.5 mM in dimethyl sulfoxide, or 25 μl of a solution containing the compound (17) at a concentration of 80, 60, 40 or 20 mM in dimethyl sulfoxide was added to the well containing the cells without the treatment with hydroxyurea. The plate was incubated for additional 48 hours. Cells collected by centrifuging the culture were suspended in 5 ml of fresh RPMI 1640 medium containing 10% fetal calf serum (Gibco). 100 μl of the suspension was used for measuring viable cell number using Premix WST-1 Cell Proliferation Assay System (Takara Shuzo, MK400).
For each of the samples, the concentration at which 50% of the proliferation is inhibited (IC50) for the cells treated with hydroxyurea was higher than that for the cells without the treatment with hydroxyurea. Table 3 summarizes IC50 (μM) for each of the samples. […] Since most of cells in a living body are arrested at G1 phase, it is considered that DGE and R-AhGal compounds (precursors of DGE) are agents less toxic to a living body.

[3] = test system: HL-60 (ATCC CCL-240) cells; assay: Measurement of apoptotic cells using FACScan; assay type: cell-based, Human; details: HL-60 cells, cultured for 24 or 48 hours
Protocol: HL-60 (ATCC CCL-240) cells were cultured at 37° C. in RPMI 1640 medium (Bio Whittaker) containing 10% fetal calf serum (JRH) which had been treated at 56° C. for 30 minutes and suspended in RPMI 1640 medium at a concentration of 2.5×10^5 cells/4.5 ml. […] each of aqueous solutions of the compound (2) at a concentration of 10, 50 or 100 mM, the compound (7) at a concentration of 500, 1000 or 1500 μM, the compound (9) at a concentration of 750, 1500 or 3000 μM, the compound (11) at a concentration of 750, 1500 or 3000 μM, or the compound (14) at a concentration of 750, 1500 or 3000 μM was added to 4.5 ml of the suspension. The mixtures were incubated at 37° C. for 24 hours in the presence of 5% CO2. Measurement of apoptotic cells using FACScan as described in Saibo Kogaku, Bessatsu (Cell Technology, Suppl.) Jikken Protocol Series: Apoptosis Jikken Protocol (Experimental Protocol Series: Experimental Protocols for Apoptosis) (Shujun-sha) pp. 129-130 and analysis of DNA fragmentation as described in Bio Manual UP Series: […] Apoptosis Jikken-ho (Bio Manual UP Series: Current Experimental Methods for Apoptosis) (Yodo-sha) pp. 61-63 were carried out using cells cultured for 24 or 48 hours in the same manner as that described above.

[4] = HL-60 cells arrested at G1 phase with 100 μM hydroxyurea, read-out: IC50, Cells treated with hydroxyurea
[5] = HL-60 cells, read-out: IC50, Cells without treatment with hydroxyurea

| conversion into DGE (spot with Rf value of 0.5, the same value as DGE) [1] | IC50 [2, 4] [µM] | IC50 [2, 5] [µM] | Compound | final concentration at which apoptotic cells were observed [3] [µM] |
| --- | --- | --- | --- | --- |
| conversion into DGE was also observed | 264 | 190 | O=C[C@H](O)[C@H]1OC[C@@H](O)[C@@H]1OCc1ccccc1 [Compound (17), 4-O-benzyl-3,6-anhydro-D-galactose] |  |
|  | 151 | 79.1 | O=C[C@H](O)[C@H]1OC[C@@H](O)[C@@H]1OC(=O)c1ccccc1 [Compound (7), 4-O-benzoyl-3,6-anhydro-D-galactose] | ≥ 100 |
| conversion into DGE was also observed |  |  | OCC1OC(OC2C(CO)OC(OC3C(CO)OC(OC4C(O)COC4C(O)C(O)O)C(O)C3O)C(O)C2O)C(O)C(O)C1O [Compound (14), 4-O-β-maltotoriosyl-3,6-anhydro-D-galactose] |  |
